Measured values taken from ChEMBL document CHEMBL1126075, “Chemistry and anti-HIV properties of 2'-fluoro-2',3'-dideoxyarabinofuranosylpyrimidines” (J Med Chem, 1992).

What was measured:
[1] = Partition coefficient (logP); assay type: physicochemical; settings: octanol/water
ATH-8 cell line [2] = assay: Percent protection of ATH8 cells from HIV-induced cytopathic effects at a concentration of 5 uM.; assay type: functional, Homo sapiens
ATH-8 cell line [3] = assay: Percent protection of ATH8 cells from HIV-induced cytopathic effects at a concentration of 0.2 uM.; assay type: functional, Homo sapiens
ATH-8 cell line [4] = assay: Percent protection of ATH8 cells from HIV-induced cytopathic effects at a concentration of 1 uM.; assay type: functional, Homo sapiens
ATH-8 cell line [5] = assay: Percent cytotoxicity against ATH8 cells at a concentration of 0.2 uM.; assay type: functional; settings: Homo sapiens
ATH-8 cell line [6] = assay: Percent cytotoxicity against ATH8 cells at a concentration of 0.5 uM.; assay type: functional; settings: Homo sapiens
ATH-8 cell line [7] = assay: Percent cytotoxicity against ATH8 cells at a concentration of 1 uM.; assay type: functional; settings: Homo sapiens
ATH-8 cell line [8] = assay: Percent cytotoxicity against ATH8 cells at a concentration of 5 uM.; assay type: functional; settings: Homo sapiens
CCRF-CEM = assay: Effect on HIV-induced cytopathogenesis in CEM cells.; assay type: functional, cell-based; settings: Homo sapiens
[9] = Therapeutic index (IC50/EC50) was determined; settings: read-out: TI
ATH-8 cell line [10] = assay: Percent protection of ATH8 cells from HIV-induced cytopathic effects at a concentration of 0.5 uM.; assay type: functional, Homo sapiens

| Structure (SMILES) | logP [1] | Protection (ATH-8 cell line [2]) | Protection (ATH-8 cell line [3]) | Protection (ATH-8 cell line [4]) | cytotoxicity at 0.2 µM (ATH-8 cell line [5]) | cytotoxicity at 0.5 µM (ATH-8 cell line [6]) | cytotoxicity at 1 µM (ATH-8 cell line [7]) | cytotoxicity at 5 µM (ATH-8 cell line [8]) | EC50 (CCRF-CEM) | IC50 (CCRF-CEM) | selectivity ratio [9] | Protection (ATH-8 cell line [10]) |
| --- | --- | --- | --- | --- | --- | --- | --- | --- | --- | --- | --- | --- |
| Nc1nc(=O)n(C2OC(CO)CC2F)cc1Cl (stereo not given) | -0.46 |  |  |  |  |  |  |  |  |  |  |  |
| O=c1ccn([C@@H]2O[C@H](CO)[C@@H](O)[C@H]2O)c(=O)[nH]1 [URIDINE] | -1.94 |  |  |  |  |  |  |  |  |  |  |  |
| Nc1ccn([C@@H]2O[C@H](CO)C[C@@H]2F)c(=O)n1 | -1.18 | 53% | 3% | 56% | 0% | 8% | 4% | 1% | 1.1 µM | 43 µM | 39 | 25% |
| Cc1cn([C@@H]2O[C@H](CO)C[C@H]2F)c(=O)[nH]c1=O | -0.44 |  |  |  |  |  |  |  |  |  |  |  |
| Nc1nc(=O)n([C@@H]2CC[C@H](CO)O2)cc1F | -1.09 | 99% | 71% | 100% | 0% | 0% | 1% | 4% | 0.1 µM | > 40 µM | > 400 | 96% |
| Nc1nc(=O)n(C2OC(CO)CC2F)cc1F (stereo not given) | -0.92 | 73% | 0% | 7% | 0% | 0% | 8% | 0% | 57.7 µM | > 580 µM | > 10 | 8% |
| Nc1ccn([C@H]2CC[C@@H](CO)O2)c(=O)n1 [ZALCITABINE] |  | 88% | 93% | 100% | 6% | 0% | 9% | 1% | 0.3 µM | 120 µM | 380 | 100% |
| O=c1ccn(C2CCC(CO)O2)c(=O)[nH]1 (stereo not given) | -1 |  |  |  |  |  |  |  |  |  |  |  |
| O=c1ccn(C2OC(CO)CC2F)c(=O)[nH]1 (stereo not given) | -0.87 |  |  |  |  |  |  |  |  |  |  |  |
| O=c1[nH]c(=O)n(C2OC(CO)CC2F)cc1F (stereo not given) | -0.72 |  |  |  |  |  |  |  |  |  |  |  |
| O=c1[nH]c(=O)n(C2OC(CO)CC2F)cc1Cl (stereo not given) | -0.28 |  |  |  |  |  |  |  |  |  |  |  |
| Nc1ccn([C@H]2C=C[C@@H](CO)O2)c(=O)n1 | -1.57 |  |  |  |  |  |  |  |  |  |  |  |
